In assay [1] the test system is human VEGF165 induced blood-retinal breakdown. Briefly: VEGF induced blood-retinal breakdown: rabbit retinal leakage model. In kind it is in vivo. The arrangement: Geometric mean (right eye values adjusted for left eye values): unit not given here. The following applies: for % reduction vs vehicle / Ratio vs Vehicle: Example 9, Table 4B; for Rt ratio of vitreoretinal fluorescein contents between right-induced and left eyes: Example 9; for Geometric mean (right eye values adjusted for left eye values): Example 42, Table 15B (i).

In assay [2] the test system is VEGF165-induced proliferation of human umbilical vein endothelial cells (HUVEC). Briefly: Human Umbilical Cord Endothelial Cell (HUVEC) proliferation assay. In kind it is cell-based. The conditions noted are these: for Predicted Means for Max % Inhibition, Estimate: weighted mixed model analysis.
Protocol: The assay measures the extent of endothelial cell proliferation induced by a defined concentration of VEGF165 and the ability of VEGF antagonists to block this effect. HUVECs were seeded at 5000 cells per well in 96-well gelatine-coated plates, leaving outer wells free of cells, and incubated for several hours to permit adherence. Test molecules were assayed at equimolar concentrations (max 3.33×10^−08M) with a 2-fold serial dilution, each in triplicate. The VEGF165 was prepared in basal medium to achieve 75 ng/ml final concentration. Medium was removed manually from the cell monolayers and 50 μl basal media was added to prevent the cells from drying out. 25 μl VEGF165-containing medium and 25 μl basal medium or test antibody-containing medium was added as appropriate. Cells were incubated for 72 hrs, after which time the total number of cells was determined using Cell Titre Glo.
The data was analysed using GraphPad Prism using a Sigmodial curve fit, variable slope cf a non-linear regression (variable slope). Individual curve fits were fitted for each molecule and at each day. Due to some poor fitting, it was decided to introduce constraints for the curve where a plateau was not observed at the lower concentration. This constraint would be equal to the mean of the points at the lowest concentration. Data was manually selected as to whether the minimum was constrained or not, and the curve fit and parameters were automatically updated based upon this criteria selection. Estimates of the curve maxima and the standard error were analysed using a weighted mixed model analysis of variance, using 1/(standard error)^2, [SE]^2, as a weighting. The analysis adjusted for variability between plates and days using random effects terms. […] The same analysis was then performed on the log 10 scale for the IC50, and the results back transformed.
The data was analysed using GraphPad Prism using a Sigmodial curve fit, variable slope cf a non-linear regression (variable slope). Individual curve fits were fitted for each molecule and at each day. Due to some poor fitting, it was decided to introduce constraints for the curve where a plateau was not observed at the lower concentration. One plate was excluded from the analysis due to poor curve fitting despite constraints. This constraint would be equal to the mean of the points at the lowest concentration. Data was manually selected as to whether the minimum was constrained or not, and the curve fit and parameters were automatically updated based upon this criteria selection. Estimates of the curve maxima and the standard error were analysed using a weighted mixed model analysis of variance, using 1/(standard error)^2, [SE]^2, as a weighting. The analysis adjusted for variability between plates and days using random effects terms. […]
Another assay deals with VEGFR1 (Flt1) (Homo sapiens, UniProt P17948). The conditions noted are these: background statement; cited from earlier work.
Assay [3] deals with T1, mVEGF R2 Fc (R&D 443-KD/CF) (mouse, UniProt P35918 20-762).
T1 construct: Bought control protein; not shown: Fc part of the bought fusion
Nature of the assay: MSD on coated mouse VEGF164 (1ug/mL mVEGF capture), detection with sulfo-TAG anti-human IgG Fc.

The mark [4] stands for this setting: Example 42, Table 15B (ii), 2000 μg/eye.
The mark [5] stands for this setting: dose H (high), VEGF induced retinal leakage.

Where “and” joins values, the source holds several entries; their conditions need not be identical. Equal values may be shown once.

T1 sequence (P35918 20-762 limits assumed): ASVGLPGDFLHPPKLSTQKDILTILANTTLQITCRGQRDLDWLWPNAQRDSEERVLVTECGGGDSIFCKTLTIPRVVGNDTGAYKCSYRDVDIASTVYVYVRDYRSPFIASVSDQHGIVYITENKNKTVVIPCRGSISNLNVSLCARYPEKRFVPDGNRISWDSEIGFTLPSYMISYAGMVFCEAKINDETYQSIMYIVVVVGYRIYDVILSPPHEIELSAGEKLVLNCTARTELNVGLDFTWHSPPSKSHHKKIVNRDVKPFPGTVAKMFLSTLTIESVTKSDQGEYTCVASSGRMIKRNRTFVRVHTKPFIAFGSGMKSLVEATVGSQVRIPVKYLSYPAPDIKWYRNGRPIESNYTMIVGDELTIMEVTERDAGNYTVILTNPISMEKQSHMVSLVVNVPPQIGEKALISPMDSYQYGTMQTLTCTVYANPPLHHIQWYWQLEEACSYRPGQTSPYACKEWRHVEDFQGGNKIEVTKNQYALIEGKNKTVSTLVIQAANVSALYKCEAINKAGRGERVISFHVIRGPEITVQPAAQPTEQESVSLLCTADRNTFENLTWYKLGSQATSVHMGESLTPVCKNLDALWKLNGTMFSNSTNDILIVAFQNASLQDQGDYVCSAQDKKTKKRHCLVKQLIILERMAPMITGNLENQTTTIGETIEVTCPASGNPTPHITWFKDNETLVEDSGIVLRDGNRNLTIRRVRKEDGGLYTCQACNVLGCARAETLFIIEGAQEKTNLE
Chain of VEGFR1 (Flt1) (P17948 27-1338, species assumed): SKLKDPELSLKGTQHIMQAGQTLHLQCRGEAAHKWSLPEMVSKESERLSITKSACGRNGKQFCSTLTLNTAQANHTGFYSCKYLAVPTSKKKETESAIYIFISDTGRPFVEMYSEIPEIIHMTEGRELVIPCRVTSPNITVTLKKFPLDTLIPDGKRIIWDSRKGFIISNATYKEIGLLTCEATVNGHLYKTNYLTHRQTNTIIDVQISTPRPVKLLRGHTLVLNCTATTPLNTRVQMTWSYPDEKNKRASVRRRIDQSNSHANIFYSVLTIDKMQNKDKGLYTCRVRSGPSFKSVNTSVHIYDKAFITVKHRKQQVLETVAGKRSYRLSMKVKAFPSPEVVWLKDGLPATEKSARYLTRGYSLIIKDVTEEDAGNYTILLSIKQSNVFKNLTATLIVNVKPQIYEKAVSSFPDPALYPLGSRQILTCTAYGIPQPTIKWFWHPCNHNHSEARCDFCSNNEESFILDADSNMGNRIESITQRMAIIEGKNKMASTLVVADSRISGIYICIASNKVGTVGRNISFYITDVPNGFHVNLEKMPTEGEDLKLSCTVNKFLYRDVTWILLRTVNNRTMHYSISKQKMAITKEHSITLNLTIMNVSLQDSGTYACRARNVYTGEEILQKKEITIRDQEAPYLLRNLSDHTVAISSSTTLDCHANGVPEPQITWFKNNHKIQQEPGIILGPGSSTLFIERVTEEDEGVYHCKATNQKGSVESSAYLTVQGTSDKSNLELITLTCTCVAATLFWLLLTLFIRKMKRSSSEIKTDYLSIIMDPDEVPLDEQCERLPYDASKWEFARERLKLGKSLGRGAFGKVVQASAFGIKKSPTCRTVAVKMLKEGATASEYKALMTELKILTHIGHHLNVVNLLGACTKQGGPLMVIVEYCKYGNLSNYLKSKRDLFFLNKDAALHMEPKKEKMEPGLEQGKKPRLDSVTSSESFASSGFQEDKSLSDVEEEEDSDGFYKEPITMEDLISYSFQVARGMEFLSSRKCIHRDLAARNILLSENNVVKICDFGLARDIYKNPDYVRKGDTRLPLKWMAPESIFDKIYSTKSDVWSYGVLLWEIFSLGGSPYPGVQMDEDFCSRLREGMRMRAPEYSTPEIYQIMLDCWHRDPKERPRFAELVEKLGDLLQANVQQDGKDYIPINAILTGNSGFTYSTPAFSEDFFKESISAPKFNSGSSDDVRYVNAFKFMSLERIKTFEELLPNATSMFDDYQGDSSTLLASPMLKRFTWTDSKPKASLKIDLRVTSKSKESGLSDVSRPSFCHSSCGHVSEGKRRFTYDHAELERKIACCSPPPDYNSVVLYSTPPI

Consider `C[C@]12C=CC(=O)C=C1CC[C@H]1[C@@H]3C[C@@H](O)[C@](O)(C(=O)CO)[C@@]3(C)C[C@H](O)[C@@]12F` [Kenacort, Triamcinalone], for which, in assay [1] (2000 μg/eye), the “% reduction vs vehicle” value amounted to 85%, the “Ratio vs Vehicle” value came to 0.1485 and the “Geometric mean (right eye values adjusted for left eye values)” value came out at 10205.21. Moreover, the “Rt ratio of vitreoretinal fluorescein contents between right-induced and left eyes” value in assay [1] (Kenacort 2000 μg/eye IVT Day -7) was determined as 1.15±0.61. In assay [1] (setting [4]), the “% reduction” value is 80% and 79.9922%; the “ratio (to vehicle)” value is reported as 0.2001.
Regarding Bevacizumab [Avastin], in assay [2] (Example 8, VEGF165 75 ng/ml, 72 hrs, maximum extent of inhibition), the “inhibit HUVEC proliferation” value is around 100%. For the same molecule, the “inhibition of VEGF driven HUVEC proliferation (extent)” value in assay [2] (Example 18, data not shown) is given as around 100%. Moreover, the “Predicted Means for Max % Inhibition, Estimate” value is 73.5423% in assay [2] (Table 14A) and 71.0316% in assay [2] (Table 18A). The “% reduction vs vehicle” value is recorded as 75% in assay [1] (setting [5]) and 75% in assay [1] (dose H (high), VEGF induced retinal leakage, listed as Bevacizumab). Also, the “Geometric mean (right eye values adjusted for left eye values)” value is given as 12332.94 in assay [1] (dose H, IVT Day -7); 12037.98 in assay [1] (dose L); 14592.62 in assay [1] (dose L/3). For the same molecule, the “% reduction” value in assay [1] (Example 42, Table 15B (ii), dose H) amounted to 75.8207%; in assay [1] (Example 42, Table 15B (ii), dose L), 76.3990%; in assay [1] (Example 42, Table 15B (ii), dose L/3) it was 71.3905%. In addition, the “reduction of VEGF induced retinal leakage” value in assay [1] (Example 42, the three different doses (H, L, L/3)) is reported as 71.4-76.4%.
For Ranibizumab [Lucentis], the “Ratio vs Vehicle” value was determined as 0.1826 in assay [1] (dose H (high)) and 0.2188 in assay [1] (low dose (L)). Besides, the “% reduction vs vehicle” value in assay [1] (setting [5]) is given as 82%; in assay [1] (dose H (high), VEGF induced retinal leakage, listed as Ranibizumab) it was 82%; in assay [1] (low dose (L), VEGF induced retinal leakage) it was 78%; in assay [1] (low dose (L), VEGF induced retinal leakage, listed as Ranibizumab), 78%. The “Rt ratio of vitreoretinal fluorescein contents between right-induced and left eyes” value in assay [1] (IVT Day -7, 500 ng rhVEGF165 Day 0, read Day 2, dose H (high)) is 1.05±0.52; in assay [1] (IVT Day -7, 500 ng rhVEGF165 Day 0, read Day 2, low dose (L)) it was 1.81±1.76.
As usually defined, the Kd is a measure of binding affinity in units of concentration. For VEGF, the Kd at VEGFR1 (Flt1) is around 0.03 nM.

B1: mouse VEGF164 (R&D 493-MV/CF) (ligand, UniProt Q00731-2 27-190, looked up)
chain: APTTEGEQKSHEVIKFMDVYQRSYCRPIETLVDIFQEYPDEIEYIFKPSCVPLMRCAGCCNDEALECVPTSESNITMQIMRIKPHQSQHIGEMSFLQHSRCECRPKKDRTKPENHCEPCSERRKHLFVQDPQTCKCSCKNTDSRCKARQLELNERTCRCDKPRR
notes: Bought reagent; also called mVEGF164; murine VEGF164
Turning to B1, the binding result in assay [3] was “binds”.

The record behind these values is US20170029494A1, “Antigen Binding Constructs” (Glaxo Group Limited, priority 2011, published 2017).
